Laboratory results as given in patent US20140243292A1, “SUBSITUTED 2-(CHROMAN-6-YLOXYL)-THIAZOLES AND THEIR USE AS PHARMACEUTICALS” (Sanofi, priority 2011, published 2014).
Structures can show the parent of a compound that is named as a salt.

molecular target: T1, human NCX1 (Homo sapiens, UniProt P32418); assay: NCX1 inhibition, reverse mode (Ca2+ influx into cells), FLIPR Fluo-4 assay; format: cell-based; conditions: inhibition of NCX1 in reverse mode (Ca2+ influx into cells); read-out: NCX1rv IC50
T1 construct: expressed in transfected cells
Procedure, shortened: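 CHO cells stably expressing human NCX1 were loaded with 2 µM Fluo-4 AM for 80 min at room temperature, then preincubated with compound for 45 min at 16 °C in pH 7.4 HEPES buffer (3.5 mM CaCl2, 2.5 mM probenecid). Reverse-mode Ca2+ influx was triggered by 20 µM final gramicidin and read at 520 nm on FLIPR. IC50 came from % inhibition of max−min fluorescence.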

Compound | IC50
O=C(NCc1nnc2n1CCC2)c1cnc(Oc2ccc3c(c2)CCC(c2ccccc2)O3)s1 (centres unmarked) [Example 2, 2-(2-Phenyl-chroman-6-yloxy)-thiazole-5-carboxylic acid (6,7-dihydro-5H-pyrrolo[2,1-c][1,2,4]triazol-3-ylmethyl)-amide] | 300 nM
CC(NC(=O)c1cnc(Oc2ccc3c(c2)CCC(c2cccc(F)c2)O3)s1)c1ccncc1 (centres unmarked) [Example 13, hydrochloride] | 300 nM
Cc1c(CNC(=O)c2cnc(Oc3ccc4c(c3)CCC(c3ccccc3)O4)s2)cnn1C (centres unmarked) [Example 14, 2-(2-Phenyl-chroman-6-yloxy)-thiazole-5-carboxylic acid (1,5-dimethyl-1H-pyrazol-4-ylmethyl)-amide] | 300 nM
O=C(NCc1ccncc1)c1cnc(Oc2ccc3c(c2)CCC(c2cccc(F)c2)O3)s1 (centres unmarked) [Example 18, hydrochloride] | 200 nM
O=C(NCc1nnc2n1CCC2)c1cnc(Oc2ccc3c(c2)CCC(c2cccc(F)c2)O3)s1 (centres unmarked) [Example 20, hydrochloride] | 200 nM
O=C(NCc1ccncn1)c1cnc(Oc2ccc3c(c2)CCC(c2ccccc2)O3)s1 (centres unmarked) [Example 32] | 600 nM
CC(C)(C)OC(=O)CNC(=O)c1cnc(Oc2ccc3c(c2)CCC(c2ccccc2)O3)s1 (centres unmarked) [compound 306] | 500 nM
CC(C)OC(=O)CNC(=O)c1cnc(Oc2ccc3c(c2)CCC(c2ccccc2)O3)s1 (centres unmarked) [compound 307] | 200 nM
CCOC(=O)CNC(=O)c1cnc(Oc2ccc3c(c2)CCC(c2ccccc2)O3)s1 (centres unmarked) [compound 308] | 200 nM
O=C(NCc1ccno1)c1cnc(Oc2ccc3c(c2)CCC(c2cnccn2)O3)s1 (centres unmarked) [compound 309] | 4700 nM
O=C(NCc1ccnc(Cl)c1)c1cnc(Oc2ccc3c(c2)CCC(c2cnccn2)O3)s1 (centres unmarked) [compound 310] | 2600 nM
OCCNCc1cnc(Oc2ccc3c(c2)CCC(c2ccccc2)O3)s1 (centres unmarked) [compound 311] | 100 nM
O=C(c1cnc(Oc2ccc3c(c2)CCC(c2ccccc2)O3)s1)N(CCO)CCO (centres unmarked) [compound 312] | 100 nM
CN1CCN(C(=O)c2cnc(Oc3ccc4c(c3)CCC(c3ccccc3)O4)s2)CC1 (centres unmarked) [compound 313] | 400 nM
O=C(c1cnc(Oc2ccc3c(c2)CCC(c2ccccc2)O3)s1)N1CCOCC1 (centres unmarked) [compound 314] | 100 nM
O=C(c1cnc(Oc2ccc3c(c2)CCC(c2ccccc2)O3)s1)N1CCCCC1 (centres unmarked) [compound 316] | 500 nM
CCCCNC(=O)c1cnc(Oc2ccc3c(c2)CCC(c2ccccc2)O3)s1 (centres unmarked) [compound 317] | 100 nM
CC(C)CNC(=O)c1cnc(Oc2ccc3c(c2)CCC(c2ccccc2)O3)s1 (centres unmarked) [compound 318] | 100 nM
OCCN(CCO)Cc1cnc(Oc2ccc3c(c2)CCC(c2ccccc2)O3)s1 (centres unmarked) [compound 319] | 800 nM
CC(C)NC(=O)c1cnc(Oc2ccc3c(c2)CCC(c2ccccc2)O3)s1 (centres unmarked) [compound 320] | 300 nM
CCc1ccccc1C1CCc2cc(Oc3ncc(C(=O)NCCN4CCNC4=O)s3)ccc2O1 (centres unmarked) [compound 322] | 1100 nM
CCc1ccccc1C1CCc2cc(Oc3ncc(C(=O)NCCc4c(C)noc4C)s3)ccc2O1 (centres unmarked) [compound 323] | 900 nM
CCc1ccccc1C1CCc2cc(Oc3ncc(C(=O)NCc4ccno4)s3)ccc2O1 (centres unmarked) [compound 324] | 500 nM

Second part, the molecule after the results:

IC50 | Compound
900 nM | Cc1ccccc1C1CCc2cc(Oc3ncc(CNC(=O)CN4C(=O)CNC4=O)s3)ccc2O1 (centres unmarked) [compound 328]
5500 nM | Cc1cccc(C)c1C1CCc2cc(Oc3ncc(C(=O)NCc4ccno4)s3)ccc2O1 (centres unmarked) [compound 331]
10000 nM | CCCNC(=O)c1sc(Oc2ccc3c(c2)CCC(c2ccccc2C)O3)nc1C (centres unmarked) [compound 332]
600 nM | Cc1ccccc1C1CCc2cc(Oc3nc(C)c(C(=O)NCCN4CCNC4=O)s3)ccc2O1 (centres unmarked) [compound 333]
600 nM | Cc1ccccc1C1CCc2cc(Oc3nc(C)c(C(=O)N4CC[C@@H](O)C4)s3)ccc2O1 (some centres unmarked) [compound 336]
7600 nM | Cc1cccc(C)c1C1CCc2cc(Oc3ncc(C(=O)NCCO)s3)ccc2O1 (centres unmarked) [compound 337]
8700 nM | Cc1cccc(C)c1C1CCc2cc(Oc3ncc(C(=O)N(C)C)s3)ccc2O1 (centres unmarked) [compound 338]
400 nM | NC(=O)c1cnc(Oc2ccc3c(c2)CCC(c2ccccc2)O3)s1 (centres unmarked) [compound 339]
900 nM | N[C@@H](CO)C(=O)NCc1cnc(Oc2ccc3c(c2)CCC(c2ccccc2)O3)s1 (some centres unmarked) [compound 340, hydrochloride]
900 nM | O=C(NCc1cnc(Oc2ccc3c(c2)CCC(c2ccccc2)O3)s1)[C@@H]1CCCN1 (some centres unmarked) [compound 341, hydrochloride]
800 nM | Cc1ccc(F)cc1C1CCc2cc(Oc3ncc(C(=O)NCc4ccno4)s3)ccc2O1 (centres unmarked) [compound 344]
170 nM | O=C(CN1CCCC1)NCc1cnc(Oc2ccc3c(c2)CCC(c2ccccc2)O3)s1 (centres unmarked) [compound 346, hydrochloride]
200 nM | Cc1ccc(F)cc1C1CCc2cc(Oc3ncc(C(=O)NCCN4CCNC4=O)s3)ccc2O1 (centres unmarked) [compound 349]
120 nM | O=C(NCCO)c1csc(Oc2ccc3c(c2)CC[C@@H](c2ccccc2)O3)n1 [compound 350]
110 nM | CCCNC(=O)c1csc(Oc2ccc3c(c2)CC[C@@H](c2ccccc2)O3)n1 [compound 351]
92 nM | O=C(NCc1ccno1)c1csc(Oc2ccc3c(c2)CC[C@@H](c2ccccc2)O3)n1 [compound 353]
160 nM | CC(O)CNC(=O)c1cnc(Oc2ccc3c(c2)CCC(c2ccccc2)O3)s1 (centres unmarked) [compound 354]
250 nM | O=C(NC1CCCC1O)c1cnc(Oc2ccc3c(c2)CCC(c2ccccc2)O3)s1 (centres unmarked) [compound 355]
540 nM | Cc1ccc(F)cc1C1CCc2cc(Oc3ncc(C(=O)N4CC[C@@H](O)C4)s3)ccc2O1 (some centres unmarked) [compound 356]
600 nM | Cc1cc2c(cc1Oc1ncc(C(=O)NCCO)s1)CCC(c1ccccc1C)O2 (centres unmarked) [compound 357]
830 nM | Cc1cc2c(cc1Oc1ncc(C(=O)NCc3ccno3)s1)CCC(c1ccccc1C)O2 (centres unmarked) [compound 358]
1500 nM | CCn1nccc1CNC(=O)c1cnc(Oc2cc3c(cc2C)OC(c2ccccc2C)CC3)s1 (centres unmarked) [compound 359]
1800 nM | COc1cccc(C2CCc3cc(Oc4ncc(C(=O)NCCO)s4)ccc3O2)c1F (centres unmarked) [compound 360]
9600 nM | COc1cccc(C2CCc3cc(Oc4ncc(C(=O)NCc5ccno5)s4)ccc3O2)c1F (centres unmarked) [compound 361]
1500 nM | CCn1nccc1CNC(=O)c1cnc(Oc2ccc3c(c2)CCC(c2cccc(OC)c2F)O3)s1 (centres unmarked) [compound 362]
1900 nM | CC1Cc2cc(Oc3ncc(C(=O)NCc4ccno4)s3)ccc2OC1c1ccccc1 (centres unmarked) [compound 363]
960 nM | CC1Cc2cc(Oc3ncc(C(=O)NCCO)s3)ccc2OC1c1ccccc1 (centres unmarked) [compound 364]
550 nM | CCn1nccc1CNC(=O)c1cnc(Oc2ccc3c(c2)CCC(c2cccc(F)c2OC)O3)s1 (centres unmarked) [compound 365]
180 nM | COc1c(F)cccc1C1CCc2cc(Oc3ncc(C(=O)NCc4ccno4)s3)ccc2O1 (centres unmarked) [compound 366]
270 nM | COc1c(F)cccc1C1CCc2cc(Oc3ncc(C(=O)NCCO)s3)ccc2O1 (centres unmarked) [compound 367]

molecular target: T1, human NCX1; assay: NCX1 inhibition, forward mode (Ca2+ efflux out of cells), FLIPR calcium assay; format: cell-based; conditions: 10 μM, CHO cells stably expressing human NCX1, read-out: Inhibition in % at 10 μM, IC50 value not determined
Text: The sodium/calcium exchanger NCX1 can transport calcium ions and sodium ions through the cell membrane. The transport is an exchange of Ca^2+ and Na^+ in two directions depending on membrane potential and ion gradients. At the first direction, named “forward mode” or “calcium export mode”, Ca^2+ is transported out of the cell and Na^+ is transported into the cell. At the other direction, named “reverse mode” or “calcium import mode”, the transport directions are vice versa. The effect of the compounds of the invention on NCX1 was determined in CHO cells stably expressing human NCX1 (gene symbol SLC8A1; cf. WO 2009/115238). The assay is based on the monitoring of intracellular Ca^2+ concentrations using a calcium-sensitive fluorescence dye which is detected by means of a FLIPR device (Fluorimetric Imaging Plate Reader, Molecular Devices).
The assay is based on the monitoring of intracellular Ca^2+ concentrations using the PBX Calcium Assay Kit from BD (Becton, Dickinson and Company) with calcium indicator dye 51-9000177BKa (BD, 640177). CHO cells expressing NCX1 were loaded with the dye, and after a preincubation period with the test compound, Ionomycin (Calbiochem, 407950) was added. Ionomycin is an ionophor for Ca^2+ ions mediating an increase of intracellular Ca^2+ ions. Consequently, intracellular Ca^2+ ions are exchanged against extracellular Na^+ ions (Ca^2+ efflux, forward mode). The decrease of intracellular Ca^2+ ions was detected by measuring the fluorescence of the calcium indicator dye at a wavelength of 520 nm by a FLIPR device.
Briefly, similarly as for the reverse mode, for the forward mode transport assay 18000 cells per well were seeded into a 96 well microplate (Corning COSTAR 3904) and incubated overnight in culture medium (cf. above). A total volume of 100 μl medium per well was used. For the preparation of the FLIPR assay, the culture medium was removed from the plates and 100 μl of assay buffer (133.8 mM NaCl (Sigma, S5886); 4.7 mM KCl (Sigma, P3911); 1.25 mM MgCl2 (Merck, 1.05833.0250); 3.5 mM CaCl2(Merck, 1.02083.0250); 5 mM glucose (Sigma, G7021); 10 mM Hepes (Sigma, H4034); pH 7.4)) were added to each well in a washing step. Assay buffer was removed, and 100 μl of a solution of the test compound in assay buffer in different concentrations were added into the wells. Further, 100 μl of dye solution (0.09% (v/v) calcium indicator dye, 9.1% (v/v) signal enhancer (from PBX Calcium Assay Kit); in assay buffer) were added into each well. The plates were incubated in the dark at room temperature for 60 min. Meanwhile a 10 μM solution of Ionomycin in assay buffer (additionally containing 0.05% fetal calf serum (cf. above); 4° C.) was prepared and stored in the wells of a 96 well microplate (96 well microplate, polypropylene, U-shape (Greiner Bio-One, 650201)). The fluorescence monitoring was performed at 60 measuring points with measurement intervals of 2 sec. After the fifth measuring point, 50 μl of the Ionomycin solution were added to each well of the assay plate to give a final Ionomycin concentration of 2 μM. For the determination of the IC50 values the minimal fluorescence value was subtracted from the maximal fluorescence value for the fifteenth to fifty-fifth measuring points. The calculation of the IC50 values via the percentage inhibitions of Ca^2+ efflux out of cells (forward mode) effected by the test compound was performed in Biost@t Speed 2.0. “NCX1fw IC50” in Table 2 means the IC50 value for inhibition of NCX1 in forward mode (in μM (micromol/liter)).

inhibition at 10 µM | Compound
27% | O=C(NCc1ccncn1)c1cnc(Oc2ccc3c(c2)CCC(c2ccccc2)O3)s1 (centres unmarked) [Example 32]

same assay, conditions: CHO cells stably expressing human NCX1, read-out: NCX1fw IC50

IC50 | Compound
1900 nM | O=C(NCc1nnc2n1CCC2)c1cnc(Oc2ccc3c(c2)CCC(c2ccccc2)O3)s1 (centres unmarked) [Example 2, 2-(2-Phenyl-chroman-6-yloxy)-thiazole-5-carboxylic acid (6,7-dihydro-5H-pyrrolo[2,1-c][1,2,4]triazol-3-ylmethyl)-amide]
900 nM | CC(NC(=O)c1cnc(Oc2ccc3c(c2)CCC(c2cccc(F)c2)O3)s1)c1ccncc1 (centres unmarked) [Example 13, hydrochloride]
2200 nM | Cc1c(CNC(=O)c2cnc(Oc3ccc4c(c3)CCC(c3ccccc3)O4)s2)cnn1C (centres unmarked) [Example 14, 2-(2-Phenyl-chroman-6-yloxy)-thiazole-5-carboxylic acid (1,5-dimethyl-1H-pyrazol-4-ylmethyl)-amide]
600 nM | O=C(NCc1ccncc1)c1cnc(Oc2ccc3c(c2)CCC(c2cccc(F)c2)O3)s1 (centres unmarked) [Example 18, hydrochloride]
1200 nM | O=C(NCc1nnc2n1CCC2)c1cnc(Oc2ccc3c(c2)CCC(c2cccc(F)c2)O3)s1 (centres unmarked) [Example 20, hydrochloride]
